Results on two compounds are retold here after ChEMBL document CHEMBL5465560, “Selectivity Literature for EUbOPEN Chemogenomic Library” (2024).

Experiment [1] deals with T1, Serine/threonine-protein kinase ULK2 (Homo sapiens) (UniProt Q8IYT8).
T1 sequence (whole entry): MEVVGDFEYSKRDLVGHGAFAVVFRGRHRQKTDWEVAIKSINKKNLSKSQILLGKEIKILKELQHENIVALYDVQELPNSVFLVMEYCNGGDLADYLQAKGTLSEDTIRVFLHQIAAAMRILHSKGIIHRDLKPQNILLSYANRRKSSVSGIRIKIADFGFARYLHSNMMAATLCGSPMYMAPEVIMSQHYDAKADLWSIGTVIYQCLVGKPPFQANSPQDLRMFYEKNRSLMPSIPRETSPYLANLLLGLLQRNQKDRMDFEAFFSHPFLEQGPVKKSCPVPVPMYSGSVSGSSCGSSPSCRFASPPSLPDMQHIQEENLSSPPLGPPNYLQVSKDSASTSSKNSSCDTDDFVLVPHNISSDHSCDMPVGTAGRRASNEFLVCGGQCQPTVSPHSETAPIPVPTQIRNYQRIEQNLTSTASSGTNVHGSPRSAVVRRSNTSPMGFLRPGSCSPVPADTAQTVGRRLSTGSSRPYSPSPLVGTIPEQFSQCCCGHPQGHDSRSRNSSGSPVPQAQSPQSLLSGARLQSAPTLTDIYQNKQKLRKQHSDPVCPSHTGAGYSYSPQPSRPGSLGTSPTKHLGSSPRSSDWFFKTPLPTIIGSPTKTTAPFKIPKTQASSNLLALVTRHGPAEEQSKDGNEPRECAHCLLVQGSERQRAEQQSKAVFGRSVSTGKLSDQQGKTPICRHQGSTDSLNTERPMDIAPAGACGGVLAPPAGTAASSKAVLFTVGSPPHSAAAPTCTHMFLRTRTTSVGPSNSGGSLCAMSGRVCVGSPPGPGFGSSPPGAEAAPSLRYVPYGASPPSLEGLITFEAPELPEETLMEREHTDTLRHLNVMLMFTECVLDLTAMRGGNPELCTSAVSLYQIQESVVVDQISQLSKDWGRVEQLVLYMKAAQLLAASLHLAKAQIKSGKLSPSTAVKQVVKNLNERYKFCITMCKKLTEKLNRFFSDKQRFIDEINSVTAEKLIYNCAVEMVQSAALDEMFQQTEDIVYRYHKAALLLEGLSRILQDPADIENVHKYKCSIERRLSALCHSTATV
In words: Selectivity interaction (KinomeScan (DiscoverX)) EUB0001049a ULK2. The following applies: at 1 µM.

The target in experiment [2] is T2, Serine/threonine-protein kinase PLK4 (Homo sapiens) (UniProt O00444).
T2 sequence (whole entry): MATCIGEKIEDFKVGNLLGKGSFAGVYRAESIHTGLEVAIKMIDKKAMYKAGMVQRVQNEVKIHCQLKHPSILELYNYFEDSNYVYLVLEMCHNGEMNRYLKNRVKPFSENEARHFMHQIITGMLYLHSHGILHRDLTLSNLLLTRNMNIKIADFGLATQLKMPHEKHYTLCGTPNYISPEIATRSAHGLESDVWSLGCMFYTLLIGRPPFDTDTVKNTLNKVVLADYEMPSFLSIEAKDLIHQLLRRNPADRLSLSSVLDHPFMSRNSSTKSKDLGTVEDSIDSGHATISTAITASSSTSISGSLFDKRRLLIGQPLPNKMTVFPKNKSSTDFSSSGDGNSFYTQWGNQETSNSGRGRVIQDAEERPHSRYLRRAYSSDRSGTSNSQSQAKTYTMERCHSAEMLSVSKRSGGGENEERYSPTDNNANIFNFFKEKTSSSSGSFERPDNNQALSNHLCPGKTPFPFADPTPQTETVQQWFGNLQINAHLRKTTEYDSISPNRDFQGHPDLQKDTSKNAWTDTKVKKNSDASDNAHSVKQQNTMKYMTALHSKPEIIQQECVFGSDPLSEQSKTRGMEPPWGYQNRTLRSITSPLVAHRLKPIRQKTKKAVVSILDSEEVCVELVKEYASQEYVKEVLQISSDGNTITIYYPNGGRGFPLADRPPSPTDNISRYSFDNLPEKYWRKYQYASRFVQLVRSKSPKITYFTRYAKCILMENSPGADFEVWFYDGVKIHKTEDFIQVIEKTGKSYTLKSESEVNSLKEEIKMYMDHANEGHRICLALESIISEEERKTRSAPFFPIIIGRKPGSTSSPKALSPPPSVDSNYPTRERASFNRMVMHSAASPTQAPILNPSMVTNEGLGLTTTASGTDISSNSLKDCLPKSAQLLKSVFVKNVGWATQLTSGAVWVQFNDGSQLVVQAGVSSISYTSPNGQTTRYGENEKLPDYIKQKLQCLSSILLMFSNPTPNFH
In words: Selectivity interaction (Kinase panel (DSF assay)) EUB0001489b PLK4. (In general: Differential scanning fluorimetry follows unfolding on heating by fluorescence.)

The compound `COc1cc(Nc2nc(C)cc(-c3cnn4nc(OC)ccc34)n2)cc(C(F)(F)F)c1` gave a % of control in experiment [1] of 92%. Regarding `CN1CCN(C(=O)c2ccc3cc2OCCOCCNc2ccn4ncc-3c4n2)CC1`, the dTM in experiment [2] worked out at 4 K.
